Laboratory results published in ChEMBL document CHEMBL1201862, “PubChem BioAssay data set” (2004).
Active and inactive are the calls of the source.

Columns and labels:
[1] = rise of 2N DNA cells, HeLa – IC50, dose response (AID 1117349); type: functional, cell-based
[2] = rise of 4N DNA cells, HeLa – IC50, dose response (AID 1117351); type: functional, cell-based
[3] = molecular target: T1, Oxysterols receptor LXR-beta (Homo sapiens, UniProt P55055); assay: LXR agonists, Gal4 luciferase reporter, dose response, counter-screen for ssDAF-12 agonist project, cell-based, luminescence, HEK293, S. stercoralis campaign (AID 720737); type: functional; settings: read-out: IC50 (the source's name)
T1 sequence (P55055 whole entry): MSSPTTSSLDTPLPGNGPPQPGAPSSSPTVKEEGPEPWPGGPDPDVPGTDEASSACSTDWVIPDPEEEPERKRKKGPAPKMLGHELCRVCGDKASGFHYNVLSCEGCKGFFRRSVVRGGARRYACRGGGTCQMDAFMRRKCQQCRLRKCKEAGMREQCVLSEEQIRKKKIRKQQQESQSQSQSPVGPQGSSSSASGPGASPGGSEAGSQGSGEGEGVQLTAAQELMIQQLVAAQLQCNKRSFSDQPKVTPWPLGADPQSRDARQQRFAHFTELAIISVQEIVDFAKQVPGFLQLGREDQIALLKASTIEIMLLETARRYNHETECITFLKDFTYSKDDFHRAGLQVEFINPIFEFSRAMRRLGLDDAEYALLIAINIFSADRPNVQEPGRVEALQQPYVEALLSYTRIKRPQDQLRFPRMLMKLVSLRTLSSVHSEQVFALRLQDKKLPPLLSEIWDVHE

[4] = Luminescence-based cell-based high throughput dose response assay to identify activators of the DAF-12 from the parasite S. stercoralis (ssDAF-12).; type: functional
[5] = molecular target: Voltage-gated inwardly rectifying potassium channel KCNH2 (Homo sapiens, UniProt Q12809); assay: concentration-dependent hERG rescue from blockers – cell-based, thallium flux, dose response (AID 2121); type: ADME
[6] = molecular target: T2, Streptokinase A (Streptococcus pyogenes serotype M1, UniProt P10520); assay: viability-normalized secreted streptokinase activity reduction – plasminogen activation absorbance, OD405, dose response (AID 1914); type: functional, Streptococcus pyogenes M1 GAS;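 also: secreted streptokinase activity via plasminogen activation per viability signal from cell pellet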
T2 sequence (P10520 whole entry): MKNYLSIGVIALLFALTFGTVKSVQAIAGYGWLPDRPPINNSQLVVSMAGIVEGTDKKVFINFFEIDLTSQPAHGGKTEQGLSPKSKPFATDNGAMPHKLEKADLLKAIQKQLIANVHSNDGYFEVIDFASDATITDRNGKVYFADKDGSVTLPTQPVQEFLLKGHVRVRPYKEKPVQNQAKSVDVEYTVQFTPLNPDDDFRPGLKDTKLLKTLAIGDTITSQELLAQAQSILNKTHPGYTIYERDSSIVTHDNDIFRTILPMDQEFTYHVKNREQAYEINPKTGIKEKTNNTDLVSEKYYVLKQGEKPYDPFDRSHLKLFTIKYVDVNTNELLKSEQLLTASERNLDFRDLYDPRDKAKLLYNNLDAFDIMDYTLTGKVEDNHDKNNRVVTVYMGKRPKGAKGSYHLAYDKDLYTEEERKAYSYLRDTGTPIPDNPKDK

[7] = molecular target: Sphingosine 1-phosphate receptor 2 (Homo sapiens, UniProt O95136); assay: Dose Response Cell Based Assay for Agonists of the S1P2 Receptor. [Related pubchem assays: 729, 736, 843 ]; type: functional
[8] = molecular target: T3, NADPH oxidase 1 (Homo sapiens, UniProt Q9Y5S8); assay: Late-stage luminescence-based cell-based dose response assay to identify inhibitors of NADPH oxidase 1 (NOX1): Synthesized analogs 2.; type: functional
T3 sequence (Q9Y5S8 whole entry): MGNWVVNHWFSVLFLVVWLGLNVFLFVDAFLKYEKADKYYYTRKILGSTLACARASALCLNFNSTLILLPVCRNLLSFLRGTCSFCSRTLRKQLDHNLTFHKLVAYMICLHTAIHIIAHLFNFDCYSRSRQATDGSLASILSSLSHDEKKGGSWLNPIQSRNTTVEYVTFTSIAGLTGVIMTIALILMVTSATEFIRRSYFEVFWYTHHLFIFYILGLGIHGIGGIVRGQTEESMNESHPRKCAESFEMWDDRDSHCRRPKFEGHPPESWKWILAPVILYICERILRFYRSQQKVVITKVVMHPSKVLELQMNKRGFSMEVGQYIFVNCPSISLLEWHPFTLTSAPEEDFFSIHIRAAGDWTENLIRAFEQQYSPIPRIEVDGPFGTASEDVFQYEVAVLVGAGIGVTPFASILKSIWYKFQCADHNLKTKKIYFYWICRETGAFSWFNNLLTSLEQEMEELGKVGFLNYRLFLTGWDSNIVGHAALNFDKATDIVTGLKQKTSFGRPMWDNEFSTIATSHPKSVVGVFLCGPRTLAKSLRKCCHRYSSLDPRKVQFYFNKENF

[9] = molecular target: Ephrin type-A receptor 4 (Mus musculus, UniProt Q03137); assay: EphA4 ligand-binding antagonists – biochemical, colorimetric, mouse EphA4, primary screen (AID 689); type: functional
[10] = system: Streptococcus sp. 'group A'; assay: Streptococcus pyogenes SK(-)GAS viability under kanamycin – luminescence, BacTiterGlo, confirmation, counter-screen for streptokinase expression inhibitor project, dose response (AID 1900); type: functional, organism-based
[11] = system: Streptococcus; assay: GAS UMAA2166 growth inhibition – luminescence, BacTiterGlo, counter-screen for streptokinase expression inhibitor project, dose response (AID 1915); type: functional, organism-based;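 also: potency for reduction of bacterial viability or growth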
[12] = molecular target: Muscarinic acetylcholine receptor M5 (Homo sapiens, UniProt P08912); assay: potentiation of ACh response at human M5 – cell-based, concentration-response curve, dose response (AID 651878); type: functional
[13] = toxicity to human hepatoma HepG2 cells – cell-based, cherry-picked samples, cytotoxicity control, dose response (AID 1159577); type: functional
[14] = reduced cellular PGC1a acetyl-lysine signal – cell-based, cherry-picked samples, dose response (AID 720514); type: functional;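 also: potency may reflect raised or lowered acetylation signal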
[15] = P. falciparum Dd2 growth inhibitors, dose response, SYBR Green, cherry-picked samples (AID 1159567); type: functional, cell-based
[16] = viability loss in HepG2 liver cells – cell-based, ATP luminescence, cherry-pick, set 6, cytotoxicity control, dose response (AID 1053125); type: functional
[17] = Luminescence Cell-Based Dose Response HTS to Identify Activators of Luciferase Translation or Activity in H4 […] Cells. [Related pubchem assays: 1829 (Project Summary), 1814 (Primary HTS)]; type: functional
[18] = system: H4; assay: Luminescence Cell-Based Dose Response HTS to Identify Activators of 5'UTR Stem-Loop Driven Prion Protein mRNA Translation in H4 Neuroglioblastoma Cells. [Related pubchem assays: 1829 (Project Summary), 1814 (Primary HTS)]; type: functional; settings: Homo sapiens
[19] = molecular target: T1, Oxysterols receptor LXR-beta; type: functional, cell-based
[20] = Luminescence Cell-Based Dose Confirmation HTS to Identify Activators of 5'UTR Stem-Loop Driven Alpha-Synuclein mRNA Translation in H4 Neuroglioblastoma Cells. [Related pubchem assays: 1829 (Project Summary), 1814 (Primary HTS)]; type: functional

Voltage-gated inwardly rectifying potassium channel KCNH2, sequence (Q12809 whole entry): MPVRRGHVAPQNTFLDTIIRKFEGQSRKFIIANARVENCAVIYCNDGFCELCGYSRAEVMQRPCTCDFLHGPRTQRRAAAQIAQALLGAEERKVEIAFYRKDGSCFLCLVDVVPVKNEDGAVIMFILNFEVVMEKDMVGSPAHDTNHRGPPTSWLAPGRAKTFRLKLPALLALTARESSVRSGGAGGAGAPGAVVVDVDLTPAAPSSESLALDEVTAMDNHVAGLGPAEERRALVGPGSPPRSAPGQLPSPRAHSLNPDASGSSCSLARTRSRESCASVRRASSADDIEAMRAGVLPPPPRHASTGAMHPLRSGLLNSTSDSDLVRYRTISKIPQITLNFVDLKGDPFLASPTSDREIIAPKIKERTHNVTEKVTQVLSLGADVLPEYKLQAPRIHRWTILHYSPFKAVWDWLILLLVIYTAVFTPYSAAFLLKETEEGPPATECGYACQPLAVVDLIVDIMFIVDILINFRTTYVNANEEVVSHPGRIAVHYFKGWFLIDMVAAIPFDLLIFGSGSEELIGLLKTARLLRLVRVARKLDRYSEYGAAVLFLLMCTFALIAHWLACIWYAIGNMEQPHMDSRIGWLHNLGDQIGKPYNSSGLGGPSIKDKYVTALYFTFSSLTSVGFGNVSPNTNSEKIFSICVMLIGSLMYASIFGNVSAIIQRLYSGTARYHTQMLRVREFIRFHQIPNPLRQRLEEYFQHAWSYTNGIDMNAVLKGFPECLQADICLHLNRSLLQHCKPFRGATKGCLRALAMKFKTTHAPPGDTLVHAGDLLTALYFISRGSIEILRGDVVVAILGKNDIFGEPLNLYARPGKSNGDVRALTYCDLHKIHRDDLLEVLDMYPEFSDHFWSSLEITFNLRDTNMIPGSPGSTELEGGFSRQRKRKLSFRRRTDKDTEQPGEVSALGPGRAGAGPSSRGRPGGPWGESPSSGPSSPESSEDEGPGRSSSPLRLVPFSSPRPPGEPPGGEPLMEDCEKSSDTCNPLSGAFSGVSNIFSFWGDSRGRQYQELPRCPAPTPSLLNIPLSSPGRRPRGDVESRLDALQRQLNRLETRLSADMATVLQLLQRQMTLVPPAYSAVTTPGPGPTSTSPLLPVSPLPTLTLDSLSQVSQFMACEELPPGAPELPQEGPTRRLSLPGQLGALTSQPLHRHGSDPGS
Ephrin type-A receptor 4, sequence (Q03137 whole entry): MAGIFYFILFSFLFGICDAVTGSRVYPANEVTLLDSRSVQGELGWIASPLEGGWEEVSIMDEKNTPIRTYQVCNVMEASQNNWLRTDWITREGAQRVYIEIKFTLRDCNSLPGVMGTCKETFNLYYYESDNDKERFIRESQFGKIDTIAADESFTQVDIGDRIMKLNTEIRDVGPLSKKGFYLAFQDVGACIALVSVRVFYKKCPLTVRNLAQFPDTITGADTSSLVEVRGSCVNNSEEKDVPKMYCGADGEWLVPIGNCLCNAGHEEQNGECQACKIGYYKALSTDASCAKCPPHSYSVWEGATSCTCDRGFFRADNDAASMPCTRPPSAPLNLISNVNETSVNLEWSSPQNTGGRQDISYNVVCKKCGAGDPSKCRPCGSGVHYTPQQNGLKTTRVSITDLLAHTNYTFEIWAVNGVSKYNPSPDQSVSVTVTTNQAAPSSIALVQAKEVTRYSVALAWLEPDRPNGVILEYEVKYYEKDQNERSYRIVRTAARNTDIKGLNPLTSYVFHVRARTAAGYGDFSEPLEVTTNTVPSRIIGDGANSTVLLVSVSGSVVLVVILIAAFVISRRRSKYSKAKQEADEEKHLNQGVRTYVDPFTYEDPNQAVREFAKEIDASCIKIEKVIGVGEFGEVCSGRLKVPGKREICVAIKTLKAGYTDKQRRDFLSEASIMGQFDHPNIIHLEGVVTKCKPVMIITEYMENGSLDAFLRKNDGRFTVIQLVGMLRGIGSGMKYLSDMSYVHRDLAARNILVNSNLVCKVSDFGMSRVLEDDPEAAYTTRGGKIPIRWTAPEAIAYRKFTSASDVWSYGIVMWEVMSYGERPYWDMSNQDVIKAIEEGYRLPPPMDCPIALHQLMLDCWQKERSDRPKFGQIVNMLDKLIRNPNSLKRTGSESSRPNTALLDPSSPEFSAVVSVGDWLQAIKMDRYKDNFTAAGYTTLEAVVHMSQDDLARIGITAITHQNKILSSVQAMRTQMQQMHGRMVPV
Sphingosine 1-phosphate receptor 2, sequence (O95136 whole entry): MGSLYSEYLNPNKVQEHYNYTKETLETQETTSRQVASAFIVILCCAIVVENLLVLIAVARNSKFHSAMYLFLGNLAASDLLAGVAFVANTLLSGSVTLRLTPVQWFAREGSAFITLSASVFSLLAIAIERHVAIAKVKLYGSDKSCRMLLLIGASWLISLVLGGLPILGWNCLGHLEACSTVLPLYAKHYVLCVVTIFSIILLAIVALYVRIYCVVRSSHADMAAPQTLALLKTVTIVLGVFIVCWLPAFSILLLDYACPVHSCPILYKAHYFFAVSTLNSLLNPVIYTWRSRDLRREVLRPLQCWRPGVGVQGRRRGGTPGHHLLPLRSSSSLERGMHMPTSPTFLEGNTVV
Muscarinic acetylcholine receptor M5, sequence (P08912 whole entry): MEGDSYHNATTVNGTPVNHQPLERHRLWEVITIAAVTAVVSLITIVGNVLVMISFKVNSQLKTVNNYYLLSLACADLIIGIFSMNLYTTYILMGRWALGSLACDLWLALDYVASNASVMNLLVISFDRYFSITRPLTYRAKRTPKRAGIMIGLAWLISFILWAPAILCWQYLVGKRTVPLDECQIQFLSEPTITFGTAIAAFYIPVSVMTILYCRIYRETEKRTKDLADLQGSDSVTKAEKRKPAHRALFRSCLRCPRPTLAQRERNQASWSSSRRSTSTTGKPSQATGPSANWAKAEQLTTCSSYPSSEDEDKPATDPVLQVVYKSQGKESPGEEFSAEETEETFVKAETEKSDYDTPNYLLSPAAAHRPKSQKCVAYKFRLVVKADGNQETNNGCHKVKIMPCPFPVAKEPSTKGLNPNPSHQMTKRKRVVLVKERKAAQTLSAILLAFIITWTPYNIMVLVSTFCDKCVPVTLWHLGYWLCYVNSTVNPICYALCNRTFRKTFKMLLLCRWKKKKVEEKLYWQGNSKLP

**Q.** Which IC50 [1] does the source give for `Cc1cc(CC(C)CC(C)(C)C)n(O)c(=O)c1` (stereo unspecified) [PIROCTONE] here?
**A.** The IC50 was > 10 µM (inactive).

**Q.** And the IC50 [2]?
**A.** Its IC50 is > 10 µM (inactive).

**Q.** Which EC50 [3] does the source give for `NC(=O)c1ccccc1NC(=O)c1ccc2ccccc2c1` here?
**A.** Its EC50 is > 67.6 µM (inactive).

**Q.** And the IC50 [4]?
**A.** The IC50 was > 67.6 µM (inactive).

**Q.** For `CCOC(=O)c1sc2nc(Cc3ccc(Cl)cc3)[nH]c(=S)c2c1C`, which EC50 [5] is on record?
**A.** The EC50 was 0.92 µM (active).

**Q.** And the EC50 [6]?
**A.** The EC50 was > 150 µM (not active).

**Q.** Which EC50 [7] does the source give for `Cc1ccc(C2CC(=O)c3cnc(N4CCc5ccccc5C4)nc3C2)cc1` (stereo unspecified) here?
**A.** The EC50 was > 50 µM (not active).

**Q.** Which IC50 [8] does the source give for `CN1c2ccccc2Sc2cc(NC(=O)c3ccc(C(=O)c4ccccc4)cc3)ccc21` here?
**A.** The IC50 was > 50 µM (not active).

**Q.** What does the source list for `CCC(C)COC(=O)C(C#N)c1nc2ccccc2nc1N1CCCCC1` (stereo unspecified)?
**A.** IC50 [9]: 17.5 µM (active); EC50 [10]: 41.9 µM (active); EC50 [6]: > 150 µM (not active); EC50 [11]: 150 µM (active)

**Q.** Which EC50 [12] does the source give for `Cc1ccc(OCCN2C(=O)C(=O)c3cc(OC(F)(F)F)ccc32)cc1` here?
**A.** Its EC50 is 0.52 µM (active).

**Q.** Which AC50 [13] does the source give for `OC[C@H]1[C@H](c2ccc(C#CC3CCCC3)cc2)[C@@H]2CN(CCC(F)(F)F)CCCCN12` here?
**A.** Its AC50 is 10.4 µM (active).

**Q.** What about the AC50 [14] of the same compound?
**A.** The AC50 was 16.8 µM (active).

**Q.** What about the AC50 [15] of the same compound?
**A.** The AC50 was 0.848 µM (active).

**Q.** For `Cc1cc(-c2nc3cccnc3s2)ccc1NS(=O)(=O)c1cccs1`, which AC50 [16] is on record?
**A.** Its AC50 is 7.51 µM (active).

**Q.** And the EC50 [17]?
**A.** The EC50 was 30.8 µM (active).

**Q.** What about the EC50 [18] of the same compound?
**A.** The EC50 was 0.197 µM (active).

**Q.** What about the EC50 [19] of the same compound?
**A.** The EC50 was > 67.5 µM (inactive).

**Q.** What about the EC50 [20] of the same compound?
**A.** Its EC50 is 9.73 µM (active).
